Laboratory results reported in PubChem BioAssay (NCI).
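Assay format: 96-well plates, 48-hour exposure. GI50 is the concentration that inhibits growth by half. Definition used: TGI = concentration required for complete inhibition of growth.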

Legend:
Experiment in all cases: growth of human tumour cells (NCI), 48 h
OVCAR-4 ovarian = test system: OVCAR-4 ovarian
SF-539 CNS = test system: SF-539 CNS
OVCAR-3 ovarian = test system: OVCAR-3 ovarian
RPMI-8226 leukemia = test system: RPMI-8226 leukemia
M19-MEL melanoma = test system: M19-MEL melanoma
NCI-H522 lung = test system: NCI-H522 lung
DLD-1 colon = test system: DLD-1 colon
HT29 colon = test system: HT29 colon
IGROV1 ovarian = test system: IGROV1 ovarian
HCT-15 colon = test system: HCT-15 colon
TK-10 renal = test system: TK-10 renal
COLO 205 colon = test system: COLO 205 colon
U251 CNS = test system: U251 CNS
MOLT-4 leukemia = test system: MOLT-4 leukemia
DMS 114 small cell lung = test system: DMS 114 small cell lung
ACHN renal = test system: ACHN renal
SW-620 colon = test system: SW-620 colon
HOP-92 NSCLC = test system: HOP-92 NSCLC
CAKI-1 renal = test system: CAKI-1 renal
XF 498 CNS = test system: XF 498 CNS
SF-295 CNS = test system: SF-295 CNS
LXFL 529 NSCLC = test system: LXFL 529 NSCLC
786-0 renal = test system: 786-0 renal
SN12C renal = test system: SN12C renal
NCI-H226 lung = test system: NCI-H226 lung
RXF-631 renal = test system: RXF-631 renal
A549 NSCLC = test system: A549 NSCLC
HOP-62 NSCLC = test system: HOP-62 NSCLC
SK-MEL-5 melanoma = test system: SK-MEL-5 melanoma
OVCAR-5 ovarian = test system: OVCAR-5 ovarian
NCI-H23 lung = test system: NCI-H23 lung
HCC-2998 colon = test system: HCC-2998 colon
HL-60(TB) leukemia = test system: HL-60(TB) leukemia
DMS 273 small cell lung = test system: DMS 273 small cell lung
SNB-75 CNS = test system: SNB-75 CNS
UO-31 renal = test system: UO-31 renal
SK-MEL-2 melanoma = test system: SK-MEL-2 melanoma
K-562 leukemia = test system: K-562 leukemia
M14 melanoma = test system: M14 melanoma
CCRF-CEM leukemia = test system: CCRF-CEM leukemia
SK-OV-3 ovarian = test system: SK-OV-3 ovarian
UACC-62 melanoma = test system: UACC-62 melanoma
SNB-19 CNS = test system: SNB-19 CNS
MALME-3M melanoma = test system: MALME-3M melanoma
HCT-116 colon = test system: HCT-116 colon
UACC-257 melanoma = test system: UACC-257 melanoma
NCI-H460 lung = test system: NCI-H460 lung
OVCAR-8 ovarian = test system: OVCAR-8 ovarian
A498 renal = test system: A498 renal
EKVX NSCLC = test system: EKVX NSCLC
KM12 colon = test system: KM12 colon
KM20L2 colon = test system: KM20L2 colon
SK-MEL-28 melanoma = test system: SK-MEL-28 melanoma

CC(C)OP(=O)(OC(C)C)C([CH2][Sn]([CH3])([CH3])[Cl])P(=O)(OC(C)C)OC(C)C
GI50 (OVCAR-4 ovarian): 26.8 µM | TGI (OVCAR-4 ovarian): > 100 µM | GI50 (SF-539 CNS): 24.2 µM | TGI (SF-539 CNS): 51.5 µM | GI50 (OVCAR-3 ovarian): 20.2 µM | TGI (OVCAR-3 ovarian): 72.5 µM | GI50 (RPMI-8226 leukemia): 15.2 µM | TGI (RPMI-8226 leukemia): 35.1 µM | GI50 (M19-MEL melanoma): 19.8 µM | TGI (M19-MEL melanoma): 49.9 µM | GI50 (NCI-H522 lung): 6.6 µM | TGI (NCI-H522 lung): 23.5 µM | GI50 (DLD-1 colon): 36.8 µM | TGI (DLD-1 colon): > 100 µM | GI50 (HT29 colon): 22.1 µM | TGI (HT29 colon): 79.2 µM | GI50 (IGROV1 ovarian): 24.5 µM | TGI (IGROV1 ovarian): 97.4 µM | GI50 (HCT-15 colon): 20.2 µM | TGI (HCT-15 colon): 47.4 µM | GI50 (TK-10 renal): 23.2 µM | TGI (TK-10 renal): 69.9 µM | GI50 (COLO 205 colon): 15.2 µM | TGI (COLO 205 colon): 29.1 µM | GI50 (U251 CNS): 20.4 µM | TGI (U251 CNS): 46.3 µM | GI50 (MOLT-4 leukemia): 18.2 µM | TGI (MOLT-4 leukemia): 46.2 µM | GI50 (DMS 114 small cell lung): 21.9 µM | TGI (DMS 114 small cell lung): 67 µM | GI50 (ACHN renal): 31 µM | TGI (ACHN renal): > 100 µM | GI50 (SW-620 colon): 20.2 µM | TGI (SW-620 colon): 42.5 µM | GI50 (HOP-92 NSCLC): 13.7 µM | TGI (HOP-92 NSCLC): 34.4 µM | GI50 (CAKI-1 renal): 19.9 µM | TGI (CAKI-1 renal): 55.7 µM | GI50 (XF 498 CNS): 14.5 µM | TGI (XF 498 CNS): 35.1 µM | GI50 (SF-295 CNS): 19.7 µM | TGI (SF-295 CNS): 48.7 µM | GI50 (LXFL 529 NSCLC): 15 µM | TGI (LXFL 529 NSCLC): 29.4 µM | GI50 (786-0 renal): 16.7 µM | TGI (786-0 renal): 33.1 µM | GI50 (SN12C renal): 27.9 µM | TGI (SN12C renal): > 100 µM | GI50 (NCI-H226 lung): 21.2 µM | TGI (NCI-H226 lung): 41.3 µM | GI50 (RXF-631 renal): 38.3 µM | TGI (RXF-631 renal): > 100 µM | GI50 (A549 NSCLC): 27.7 µM | TGI (A549 NSCLC): > 100 µM | GI50 (HOP-62 NSCLC): 20.9 µM | TGI (HOP-62 NSCLC): 40.4 µM | GI50 (SK-MEL-5 melanoma): 16.5 µM | TGI (SK-MEL-5 melanoma): 31 µM | GI50 (OVCAR-5 ovarian): 31.5 µM | TGI (OVCAR-5 ovarian): > 100 µM | GI50 (NCI-H23 lung): 18.1 µM | TGI (NCI-H23 lung): 44.3 µM | GI50 (HCC-2998 colon): 22.6 µM | TGI (HCC-2998 colon): 40.3 µM | GI50 (HL-60(TB) leukemia): 4.56 µM | TGI (HL-60(TB) leukemia): 18.2 µM | GI50 (DMS 273 small cell lung): 19.8 µM | TGI (DMS 273 small cell lung): 53.5 µM | GI50 (SNB-75 CNS): 19.3 µM | TGI (SNB-75 CNS): 43.3 µM | GI50 (UO-31 renal): 19.9 µM | TGI (UO-31 renal): 43.2 µM | GI50 (SK-MEL-2 melanoma): 15.6 µM | TGI (SK-MEL-2 melanoma): 29.9 µM | GI50 (K-562 leukemia): 25.3 µM | TGI (K-562 leukemia): > 100 µM | GI50 (M14 melanoma): 16.4 µM | TGI (M14 melanoma): 31.4 µM | GI50 (CCRF-CEM leukemia): 20.7 µM | TGI (CCRF-CEM leukemia): 64.9 µM | GI50 (SK-OV-3 ovarian): 25.5 µM | TGI (SK-OV-3 ovarian): 64 µM | GI50 (UACC-62 melanoma): 14.1 µM | TGI (UACC-62 melanoma): 32.9 µM | GI50 (SNB-19 CNS): 30.2 µM | TGI (SNB-19 CNS): 86.9 µM | GI50 (MALME-3M melanoma): 16.3 µM | TGI (MALME-3M melanoma): 33.2 µM | GI50 (HCT-116 colon): 19.7 µM | TGI (HCT-116 colon): 42.8 µM | GI50 (UACC-257 melanoma): 21.3 µM | TGI (UACC-257 melanoma): 65.3 µM | GI50 (NCI-H460 lung): 16 µM | TGI (NCI-H460 lung): 36.3 µM | GI50 (OVCAR-8 ovarian): 30.2 µM | TGI (OVCAR-8 ovarian): > 100 µM | GI50 (A498 renal): 19.3 µM | TGI (A498 renal): > 100 µM | GI50 (EKVX NSCLC): 30.3 µM | TGI (EKVX NSCLC): 98 µM | GI50 (KM12 colon): 13.4 µM | TGI (KM12 colon): 41.9 µM | GI50 (KM20L2 colon): 17.5 µM | TGI (KM20L2 colon): 34.6 µM | GI50 (SK-MEL-28 melanoma): 21.3 µM | TGI (SK-MEL-28 melanoma): 74.9 µM
